From patent US7045532B2 (Millennium Pharmaceuticals, Inc., priority 1999, dated 2006)
Like-named read-outs stand apart in the source and are kept apart here.

Target: T1, ACE-2 (Homo sapiens, UniProt Q9BYF1)
T1 construct: a stop codon inserted after the serine immediately preceding the transmembrane domain; made in house; host or cells: CHO K1 cells (transient transfection, purified from conditioned medium)
Assay: ACE-2 Competitive Substrate Assay (ACS Assay)
Type: biochemical

[1] = Ki class, compounds tested in 5% DMSO, 12 compound concentrations, Ki=Kiapp/(1+[S]/Km), read-out: Human ACE-2 Activity
[2] = Table 3, very good ACE-2 inhibiting compounds, species not given, read-out: ACE-2 Activity, Ki
[3] = Ki class per key, compounds tested in 5% DMSO, 12 compound concentrations, 25° C., Ki=Kiapp/(1+[S]/Km), read-out: Human ACE-2 Activity

T1 sequence (Q9BYF1 18-740 limits assumed): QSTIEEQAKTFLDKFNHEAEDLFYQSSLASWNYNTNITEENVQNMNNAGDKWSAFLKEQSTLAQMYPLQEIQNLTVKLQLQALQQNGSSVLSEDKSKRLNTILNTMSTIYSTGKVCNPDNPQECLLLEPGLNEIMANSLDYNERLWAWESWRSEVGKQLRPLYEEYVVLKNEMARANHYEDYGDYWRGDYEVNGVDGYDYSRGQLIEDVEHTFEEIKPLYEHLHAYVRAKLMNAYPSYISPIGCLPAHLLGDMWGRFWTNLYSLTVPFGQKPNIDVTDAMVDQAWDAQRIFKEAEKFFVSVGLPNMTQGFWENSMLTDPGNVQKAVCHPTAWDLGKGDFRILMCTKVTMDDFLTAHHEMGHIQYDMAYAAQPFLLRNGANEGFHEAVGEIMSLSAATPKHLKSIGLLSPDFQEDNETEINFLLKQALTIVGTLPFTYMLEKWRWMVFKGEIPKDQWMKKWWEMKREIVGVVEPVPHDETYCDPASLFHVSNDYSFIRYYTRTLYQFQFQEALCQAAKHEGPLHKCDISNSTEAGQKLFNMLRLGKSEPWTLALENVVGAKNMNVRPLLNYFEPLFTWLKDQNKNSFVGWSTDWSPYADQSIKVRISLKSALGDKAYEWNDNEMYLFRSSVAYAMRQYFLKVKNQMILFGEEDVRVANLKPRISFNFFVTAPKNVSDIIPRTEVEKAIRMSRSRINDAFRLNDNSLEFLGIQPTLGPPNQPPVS

Row | SMILES | Ki [1] [nM] | Ki [2] [nM] | Ki [3] [nM]
1 | CC(C)C[C@H](N[C@@H](Cc1ccc(-c2cc(Cl)cc(Cl)c2)o1)C(=O)O)C(=O)O [NS, (S,S)-2-{1-Carboxy-2-[5-(3,5-dichlorophenyl)-furan-2-yl]-ethylamino}-4-methyl-pentanoic acid] | 100 to 500 | – | –
2 | Cc1ccc(Cn2cncc2C[C@H](NC(CC(C)C)C(=O)O)C(=O)O)cc1C (single isomer, unassigned) [HL, 2-[1-Carboxy-2-[3-(3,4-dimethyl-benzyl)-3H-imidazol-4-yl]-ethylamino]4-methyl-pentanoic acid] | > 500 | – | –
3 | CC(C)C[C@H](N[C@@H](Cc1cncn1Cc1cc(Cl)cc(Cl)c1)C(=O)OCc1ccccc1)C(=O)O [LB, (S,S) 2-{1-Benzyloxycarbonyl-2-[3-(3,5-dichloro-benzyl)-3H-imidazol-4-yl]-ethylamino}-4-methyl-pentanoic acid] | > 500 | – | –
4 | COc1cccc(Cn2cncc2C[C@H](NC(CC(C)C)C(=O)O)C(=O)O)c1OC (single isomer, unassigned) [IO, 2-[1-Carboxy-2-[3-(2,3-dimethoxy-benzyl)-3H-imidazol-4-yl]-ethylamino)4-methyl-pentanoic acid] | < 100 | 50 to 100 | –
5 | CC(C)COc1cccc(C[C@H](N[C@@H](CC(C)C)C(=O)O)C(=O)O)c1 [ON, 2-[1-Carboxy-2-(3-isobutoxy-phenyl)-ethylamino]-4-methyl-pentanoic acid] | > 500 | – | –
6 | CC(C)C[C@H](N[C@@H](Cn1ccn(Cc2ccc(F)cc2)c1=O)C(=O)O)C(=O)O [NQ, 2-{1-Carboxy-2-[3-(4-fluoro-benzyl)-2-oxo-2,3-dihydro-imidazol-1-yl]-ethylamino}-4-methyl-pentanoic acid] | 100 to 500 | – | –
7 | CC(C)C[C@H](N[C@@H](CC(=O)Nc1nc2ccc(Cl)cc2s1)C(=O)O)C(=O)O [MB, (S,S)-2-[1-Carboxy-2-(6-chloro-benzothiazol-2-ylcarbamoyl)-ethylamino]-4-methyl-pentanoic acid] | < 100 | < 50 | –
8 | CC(C)C[C@H](N[C@@H](CCNC(=O)c1cccc(Cl)c1)C(=O)O)C(=O)O [KP, (S,S)-2-[1-Carboxy-3-(3-chloro-benzoylamino)-propylamino]-4-methyl-pentanoic acid] | > 500 | – | –
9 | CC(C)C[C@H](N[C@@H](Cn1ccn(Cc2ccc(Cl)c(Cl)c2)c1=O)C(=O)O)C(=O)O [KU, (S,S) 2-{1-Carboxy-2-[3-(3,4-dichloro-benzyl)-2-oxo-2,3-dihydro-imidazol-1-yl]ethylamino}-4-methyl-pentanoic acid] | < 100 | 50 to 100 | –
10 | CC(C)C[C@H](N[C@@H](Cc1ccc(-c2ccc3c(c2)OCO3)o1)C(=O)O)C(=O)O [OJ, (S,S)-2-[2-(5-Benzo[1,3]dioxol-5-yl-furan-2-yl)-1-carboxy-ethylamino]-4-methyl-pentanoic acid] | 100 to 500 | – | –
11 | CC(C)C[C@H](N[C@@H](Cn1ccn(-c2cc(F)cc(F)c2)c1=O)C(=O)O)C(=O)O [MS, 2-{1-Carboxy-2-[3-(3,5-difluoro-phenyl)-2-oxo-2,3-dihydro-imidazol-1-yl]-ethylamino}-4-methyl-pentanoic acid] | 100 to 500 | – | –
12 | Cc1cc(C)cc(Cn2cncc2C[C@H](NC(CC(C)C)C(=O)O)C(=O)O)c1 (single isomer, unassigned) [HR, 2-[1-Carboxy-2-[3-(3,5-dimethyl-benzyl)-3H-imidazol-4-yl]-ethylamino)4-methyl-pentanoic acid] | > 500 | – | –
13 | CC(C)CC(N[C@@H](Cc1cncn1Cc1cccc(F)c1F)C(=O)O)C(=O)O (single isomer, unassigned) [IU, 2-[1-Carboxy-2-[3-(2,3-difluoro-benzyl)-3H-imidazol-4-yl]-ethylamino]4-methyl-pentanoic acid] | < 100 | 50 to 100 | –
14 | CC(C)C[C@H](N[C@@H](Cn1ccn(CCc2ccccc2F)c1=O)C(=O)O)C(=O)O [PP, 2-(1-Carboxy-2-{3-[2-(2-fluoro-phenyl)-ethyl]-2-oxo2,3-dihydro-imidazol-1-yl}-ethylamino)-4-methyl-pentanoic acid] | – | – | > 500
15 | CC(C)CC(N[C@@H](Cc1cncn1Cc1cc(Cl)cc(Cl)c1)C(=O)O)C(=O)O (single isomer, unassigned) [HF, 2-[1-Carboxy-2-[3-(3,5-dichloro-benzyl)-3H-imidazol-4-yl]-ethylamino)4-methyl-pentanoic acid] | 100 to 500 | – | –
16 | CC(C)CC(N[C@@H](Cc1cncn1Cc1cccc(F)c1F)C(=O)O)C(=O)O (single isomer, unassigned) [IV, 2-[1-Carboxy-2-[3-(2,3-difluoro-benzyl)-3H-imidazol-4-yl]-ethylamino]4-methyl-pentanoic acid] | > 500 | – | –
17 | CC(C)C[C@H](N[C@@H](Cc1csc(-c2ccc3c(c2)CCO3)n1)C(=O)O)C(=O)O [KI, (S,S)-2-{1-Carboxy-2-[2(2,3-dihydro-benzofaran-5-yl]-thiazol-4-yl]-ethylamino}-4-methyl pentanoic acid] | < 100 | 50 to 100 | –
18 | CC(C)C[C@H](N[C@@H](Cc1cc(-c2ccc(Cl)c(Cl)c2)on1)C(=O)O)C(=O)O [QL, 2-[1-Carboxy-2-[5-(3,4-dichloro-phenyl)-isoxazol-3-yl]-ethylamino)-4-methylpentanoic acid] | – | 50 to 100 | < 100
19 | CC(C)C[C@H](N[C@@H](Cc1ccc(N(Cc2cc(F)cc(F)c2)Cc2cc(F)cc(F)c2)cc1)C(=O)O)C(=O)O [RD, 2-(2-(4-[Bis-(3,5-difluoro-benzyl)-amino]-phenyl)-1-carboxy-ethylamino)-4-methyl-pentanoic acid] | – | – | 100 to 500
20 | COC(=O)[C@H](Cc1cncn1Cc1cc(Cl)cc(Cl)c1)N[C@H](CC(C)C)C(=O)O [KY, 2-[2-[3-(3,5-Dichloro-benzyl)-3H-imidazol-4-yl]-1-methoxycarbonyl-ethylamino]-4-methyl-pentanoic acid] | 100 to 500 | – | –
21 | CC(C)C[C@H](N[C@@H](Cc1ccc(NC(=O)C(C)(C)C)cc1)C(=O)O)C(=O)O [QS, 2-{1-Carboxy-2-[4-(2,2-dimethyl-propionylamino)-phenyl]-ethylamino}-4-methyl-pentanoic acid] | – | – | 100 to 500

Continued, values first:

Row | Ki [1] [nM] | Ki [2] [nM] | Ki [3] [nM] | SMILES
22 | > 500 | – | – | Cc1cccc(Cn2cncc2C[C@H](NC(CC(C)C)C(=O)O)C(=O)O)c1 (single isomer, unassigned) [HP, 2-[1-Carboxy-2-[3-(3-methyl-benzyl)-3H-imidazol-4-yl]-ethylamino]4-methyl-pentanoic acid]
23 | < 100 | < 50 | – | CC(C)C[C@H](N[C@@H](Cc1cncn1Cc1ccc(I)cc1)C(=O)O)C(=O)O [NI, 2-[1-Carboxy-2-[3-(4-iodobenzyl)-3H-imidazol-4-yl]-ethylamino]-4-methyl-pentanoic acid]
24 | – | < 50 | < 100 | CC(C)C[C@H](N[C@@H](Cc1ccc(-c2cnc3ccccc3c2)cc1)C(=O)O)C(=O)O [QC, (S,S)-2-[1-Carboxy-2-(4-quinolin-3-yl-phenyl)-ethylamino]-4-methyl-pentanoic acid]
25 | – | 50 to 100 | < 100 | CCOc1ccnc(-c2ccc(C[C@H](N[C@@H](CC(C)C)C(=O)O)C(=O)O)cc2)c1Cl [QB, (S,S)-2-{1-Carboxy-2-[4-(3-chloro-4-ethoxy-pyridin-2-yl)-phenyl]-ethylamino}-4-methyl pentanoic acid]
26 | 100 to 500 | – | – | CC(C)C[C@H](N[C@@H](Cc1cccc(OCc2cc(F)cc(F)c2)c1)C(=O)O)C(=O)O [NA, 2-[1-Carboxy-2-[3-(3,5-difluoro-benzyloxy)-phenyl]-ethylamino]-4-methyl-pentanoic acid]
27 | – | – | 100 to 500 | CC(C)C[C@H](N[C@@H](Cc1ccccc1C#N)C(=O)O)C(=O)O [QI, 2-[1-Carboxy-2-(2-cyano-phenyl)-ethylamino]-4-methyl-pentanoic acid]
28 | < 100 | 50 to 100 | – | CC(C)C[C@H](N[C@@H](Cc1cccc(OCc2cc(Cl)cc(Cl)c2)c1)C(=O)O)C(=O)O [NY, 2-[1-Carboxy-2-[3-(3,5-dichloro-benzyloxy)-phenyl]-ethylamino]-4-methyl-pentanoic acid]
29 | 100 to 500 | – | – | CC(C)CC(N[C@@H](Cc1cncn1Cc1cccc(F)c1)C(=O)O)C(=O)O (single isomer, unassigned) [JR, 2-[1-Carboxy-2-[3-(3-fluoro-benzyl)-3H-imidazol-4-yl]-ethylamino]4-methyl-pentanoic acid]
30 | > 500 | – | – | CC(C)C[C@H](N[C@@H](Cc1ccc(-c2ccc(Cl)cc2)o1)C(=O)O)C(=O)O [OL, (S,S)-2-{1-Carboxy-2-[5-(4-chloro-phenyl)-furan-2-yl]-ethylamino}-4-methyl-pentanoic acid]
31 | > 500 | – | – | CC(C)C[C@H](N[C@@H](Cc1ccc(Cc2cc(Cl)cc(Cl)c2)cc1)C(=O)O)C(=O)O [OF, (S,S)-2-{1-Carboxy-2-[4-(3,5-dichloro-benzyl)-phenyl]-ethylamino}-4-methyl-pentanoic acid]
32 | > 500 | – | – | CC(C)CC(N[C@@H](Cc1csc(Cc2ccccc2)n1)C(=O)O)C(=O)O (single isomer, unassigned) [JZ, 2-[2-(2-Benzyl-thiazol-4-yl)-1-carboxy-ethylamino]-4-methyl-pentanoic acid]
33 | > 500 | – | – | CC(C)C[C@H](N[C@@H](CNC(=O)c1ccc2ccccc2c1)C(=O)O)C(=O)O [MT, 2-(1-Carboxy-2-[(naphthalene-2-carbonyl)amino]-ethylamino)-4-methyl-pentanoic acid]
34 | – | < 50 | < 100 | CC(C)C[C@H](N[C@@H](Cc1cccc(OCc2csc3ccc(Cl)cc23)c1)C(=O)O)C(=O)O [PH, S,S-2-{1-Carboxy-2-[3-(5-chloro-benzo[b]thiophen-3-ylmethoxy)-phenyl]-ethylamino}-4-methyl-pentanoic acid]
35 | – | – | > 500 | CC(C)C[C@H](N[C@@H](Cc1ccccc1OCc1csc2ccc(Cl)cc12)C(=O)O)C(=O)O [QT, 2-{1-Carboxy-2-[2-(5-chloro-benzo[b]thiophen-3-ylmethoxy)-phenyl]-ethylamino}-4-methyl-pentanoic acid]
